Laboratory results from patent publication US20230136600A1, “Method and device for screening antigen epitope polypeptide” (priority 2020, published 2023).

Assays:
[1] = test system: novel coronavirus (live coronavirus), vero cells; assay: In-vitro live virus neutralization experiment with serum of immunized mice (CPE method); assay type: in vivo, SARS-CoV-2; details: Embodiment I: single peptide 100 μg + MF59 at Day 0, 14, 28, Balb/c mice, serum Day 35
Balb/c mice = assay: Polypeptide chip-based vaccine immunogenicity scoring system; assay type: in vivo; set-up: key to A2: whether the 95 percentile of the last sampling is increased compared with the end point: Y = rise; N = no rise
[2] = Embodiment III, polypeptide-KLH
[3] = Embodiment III, polypeptide-KLH, Mix1-10
[4] = Embodiment III, polypeptide-KLH, total score = 5
[5] = Embodiment III, polypeptide-KLH, value of the whole mix
[6] = adjuvant AddaVax, 7 peptides co-immunized in mice
[7] = adjuvant Adju-Phos, 7 peptides co-immunized in mice
[8] = adjuvant Alhydrogel, 7 peptides co-immunized in mice
[9] = adjuvant Imjet Alumn, 7 peptides co-immunized in mice
[10] = adjuvant MA103A, 7 peptides co-immunized in mice
[11] = adjuvant MA103B, 7 peptides co-immunized in mice

“MEVTPSGTWLTY (SARS-CoV-2) [SEQ ID NO:22]” was tested, and the “Neutralizing antibody positive rate (%)” value [1] was 20%, the “B1: D 0-D 14 95 percentile rise in the number of mice” value (Balb/c mice; [2]) was 3 and the “B2: D 0-D 21 95 percentile rise in the number of mice” value (Balb/c mice; [2]) was 3. The “B3: D 14-D 21 95 percentile rise in the number of mice” value (Balb/c mice; [2]) was 3, the “B4: D 21-D 28 95 percentile rise in the number of mice” value (Balb/c mice; [2]) was 0 and the “A1: difference between a highest median and a D 0 median (95 percentile)” value (Balb/c mice; [3]) was 0.07. For the same sequence, the “A2: whether the 95 percentile of the last sampling is increased compared with the end point” value (Balb/c mice; [3]) was “N”, the Total single peptide (Balb/c mice; Embodiment III, polypeptide-KLH, A*3 + B*2 + C*1) was 10.7 and the “A: 95 percentile grouping number score” value (Balb/c mice; [4]) was 2. The “B: Mouse performance score” value (Balb/c mice; [4]) was 2.1, the “C1: #A timing-sequence response peptide fragment set” value (Balb/c mice; [5]) was 352 and the “C2: #B vaccine specificity peptide fragment set” value (Balb/c mice; [5]) was 541. For the same sequence, the “C3: Intersection of A and B” value (Balb/c mice; [5]) was 1, the “C4: Percentage of the intersection in set B” value (Balb/c mice; [5]) was 0.185 and the “C: Timing-sequence response and specificity score” value (Balb/c mice; [5]) was 0.5. For the same sequence, the “1) 95 percentile grouping number A” value (Balb/c mice; [6]) was 4, the “1) 95 percentile grouping number A1” value (Balb/c mice; [6]) was 0.05 and the “2) Mouse performance B” value (Balb/c mice; [6]) was 2.9. The “2) Mouse performance B1” value (Balb/c mice; [6]) was 3, the “2) Mouse performance B2” value (Balb/c mice; [6]) was 4 and the “2) Mouse performance B3” value (Balb/c mice; [6]) was 3. The “3) Timing-sequence response and specificity C” value (Balb/c mice; [6]) was 0, the “3) Timing-sequence response and specificity C1” value (Balb/c mice; [6]) was 237 and the “3) Timing-sequence response and specificity C2” value (Balb/c mice; [6]) was 1244. The “3) Timing-sequence response and specificity C3” value (Balb/c mice; [6]) was 0, the “3) Timing-sequence response and specificity C4” value (Balb/c mice; [6]) was 0.000 and the Total single peptide (Balb/c mice; [6]) was 17.8. The “1) 95 percentile grouping number A” value (Balb/c mice; [7]) was 5, the “1) 95 percentile grouping number A1” value (Balb/c mice; [7]) was 0.075 and the “2) Mouse performance B” value (Balb/c mice; [7]) was 2.1. The “2) Mouse performance B1” value (Balb/c mice; [7]) was 3, the “2) Mouse performance B2” value (Balb/c mice; [7]) was 4 and the “2) Mouse performance B3” value (Balb/c mice; [7]) was 1. For the same sequence, the “3) Timing-sequence response and specificity C” value (Balb/c mice; [7]) was 0, the “3) Timing-sequence response and specificity C1” value (Balb/c mice; [7]) was 203 and the “3) Timing-sequence response and specificity C2” value (Balb/c mice; [7]) was 1244. The “3) Timing-sequence response and specificity C3” value (Balb/c mice; [7]) was 0, the “3) Timing-sequence response and specificity C4” value (Balb/c mice; [7]) was 0.000 and the Total single peptide (Balb/c mice; [7]) was 19.2. For the same sequence, the “1) 95 percentile grouping number A” value (Balb/c mice; [8]) was 2, the “1) 95 percentile grouping number A1” value (Balb/c mice; [8]) was 0.03 and the “2) Mouse performance B” value (Balb/c mice; [8]) was 1.7. The “2) Mouse performance B1” value (Balb/c mice; [8]) was 3, the “2) Mouse performance B2” value (Balb/c mice; [8]) was 2 and the “2) Mouse performance B3” value (Balb/c mice; [8]) was 1. For the same sequence, the “3) Timing-sequence response and specificity C” value (Balb/c mice; [8]) was 1, the “3) Timing-sequence response and specificity C1” value (Balb/c mice; [8]) was 123 and the “3) Timing-sequence response and specificity C2” value (Balb/c mice; [8]) was 1244. For the same sequence, the “3) Timing-sequence response and specificity C3” value (Balb/c mice; [8]) was 2, the “3) Timing-sequence response and specificity C4” value (Balb/c mice; [8]) was 0.161 and the Total single peptide (Balb/c mice; [8]) was 9.9. For the same sequence, the “1) 95 percentile grouping number A” value (Balb/c mice; [9]) was 5, the “1) 95 percentile grouping number A1” value (Balb/c mice; [9]) was 0.145 and the “2) Mouse performance B” value (Balb/c mice; [9]) was 2.3. For the same sequence, the “2) Mouse performance B1” value (Balb/c mice; [9]) was 5, the “2) Mouse performance B2” value (Balb/c mice; [9]) was 4 and the “2) Mouse performance B3” value (Balb/c mice; [9]) was 0. For the same sequence, the “3) Timing-sequence response and specificity C” value (Balb/c mice; [9]) was 1, the “3) Timing-sequence response and specificity C1” value (Balb/c mice; [9]) was 100 and the “3) Timing-sequence response and specificity C2” value (Balb/c mice; [9]) was 1244. The “3) Timing-sequence response and specificity C3” value (Balb/c mice; [9]) was 3, the “3) Timing-sequence response and specificity C4” value (Balb/c mice; [9]) was 0.241 and the Total single peptide (Balb/c mice; [9]) was 20.1. For the same sequence, the “1) 95 percentile grouping number A” value (Balb/c mice; [10]) was 5, the “1) 95 percentile grouping number A1” value (Balb/c mice; [10]) was 0.11 and the “2) Mouse performance B” value (Balb/c mice; [10]) was 2.5. The “2) Mouse performance B1” value (Balb/c mice; [10]) was 5, the “2) Mouse performance B2” value (Balb/c mice; [10]) was 5 and the “2) Mouse performance B3” value (Balb/c mice; [10]) was 0. The “3) Timing-sequence response and specificity C” value (Balb/c mice; [10]) was 1, the “3) Timing-sequence response and specificity C1” value (Balb/c mice; [10]) was 260 and the “3) Timing-sequence response and specificity C2” value (Balb/c mice; [10]) was 1244. The “3) Timing-sequence response and specificity C3” value (Balb/c mice; [10]) was 3, the “3) Timing-sequence response and specificity C4” value (Balb/c mice; [10]) was 0.241 and the Total single peptide (Balb/c mice; [10]) was 20.5. For the same sequence, the “1) 95 percentile grouping number A” value (Balb/c mice; [11]) was 4.5, the “1) 95 percentile grouping number A1” value (Balb/c mice; [11]) was 0.07 and the “2) Mouse performance B” value (Balb/c mice; [11]) was 3. For the same sequence, the “2) Mouse performance B1” value (Balb/c mice; [11]) was 4, the “2) Mouse performance B2” value (Balb/c mice; [11]) was 5 and the “2) Mouse performance B3” value (Balb/c mice; [11]) was 2. For the same sequence, the “3) Timing-sequence response and specificity C” value (Balb/c mice; [11]) was 0, the “3) Timing-sequence response and specificity C1” value (Balb/c mice; [11]) was 153 and the “3) Timing-sequence response and specificity C2” value (Balb/c mice; [11]) was 1244. The “3) Timing-sequence response and specificity C3” value (Balb/c mice; [11]) was 0, the “3) Timing-sequence response and specificity C4” value (Balb/c mice; [11]) was 0.000 and the Total single peptide (Balb/c mice; [11]) was 19.5.
